From ChEMBL document CHEMBL3864125, “Design, synthesis and evaluation of 4-dimethylamine flavonoid derivatives as potential multifunctional anti-Alzheimer agents” (Eur J Med Chem, 2016) come the findings set out here.

For one series, the target named is Cholinesterase (Equus caballus, UniProt P81908).
The target in the next series is Acetylcholinesterase (Electrophorus electricus, UniProt O42275).
Series [1] deals with PC-12. Nature of the series: Protective effect against H2O2-induced cell death in rat PC12 cells at 1 to 5 uM preincubated for 2 hrs followed by H2O2 addition for 24 hrs by MTT assay. Type of series: functional, cell-based.
Series [2] deals with T1, Amyloid-beta precursor protein (Homo sapiens, UniProt P05067). Nature of the series: Potency index, ratio of curcumin IC50 to compound IC50 for self-mediated amyloid beta (1 to 42) (unknown origin) aggregation.
The subject of series [3] is PC-12. Nature of the series: Protective effect against H2O2-induced cell death in rat PC12 cells at 5 uM preincubated for 2 hrs followed by H2O2 addition for 24 hrs by MTT assay. Type of series: functional, cell-based. In general terms: Tetrazolium assays rely on reduction of a dye to a coloured formazan, in cell work by metabolically active cells.
The target of series [4] is Cholinesterase (Equus caballus) (UniProt P81908). Nature of the series: Mixed-type inhibition of horse serum BChE using BTC as substrate at 12.5 to 100 nM preincubated for 15 mins followed by substrate addition by Lineweavere-Burk plot analysis.
The test system of series [5] is PC-12. Nature of the series: Antioxidant activity in rat PC12 cells assessed as decrease of H2O2-induced ROS production at 2.5 uM preincubated for 2 hrs followed by H2O2 addition for 24 hrs by DCFH-DA /DAPI-based fluorescence assay. Type of series: functional, cell-based.
The target of series [6] is Acetylcholinesterase (Electrophorus electricus) (UniProt O42275). Nature of the series: Mixed-type inhibition of electric eel AChE using ATC as substrate at 25 to 100 nM preincubated for 15 mins followed by substrate addition by Lineweavere-Burk plot analysis.
Series [7] deals with T1, Amyloid-beta precursor protein.
Description: Inhibition of self-mediated amyloid beta (1 to 42) (unknown origin) aggregation after 48 hrs by thioflavin T fluorescence assay
The next series is filed under the species Rattus norvegicus. Nature of the series: Cytotoxicity against rat PC12 cells assessed as reduction in cell viability at 1 to 5 uM after 2 hrs by MTT assay. Type of series: toxicity. The conditions noted are these: pc-12, 2 h.
In series [8] the target is Acetylcholinesterase (Electrophorus electricus) (UniProt O42275). Nature of the series: Mixed-type inhibition of electric eel AChE using ATC as substrate at 1.25 to 5 uM preincubated for 15 mins followed by substrate addition by Lineweavere-Burk plot analysis.
Series [9] has as its target Cholinesterase (Equus caballus) (UniProt P81908). Conditions: 125 to 500 nM.

Active and inactive are the calls of the source. The calls are words filed in the database; no cut-off is given here.

Chain of Cholinesterase (P81908 whole entry): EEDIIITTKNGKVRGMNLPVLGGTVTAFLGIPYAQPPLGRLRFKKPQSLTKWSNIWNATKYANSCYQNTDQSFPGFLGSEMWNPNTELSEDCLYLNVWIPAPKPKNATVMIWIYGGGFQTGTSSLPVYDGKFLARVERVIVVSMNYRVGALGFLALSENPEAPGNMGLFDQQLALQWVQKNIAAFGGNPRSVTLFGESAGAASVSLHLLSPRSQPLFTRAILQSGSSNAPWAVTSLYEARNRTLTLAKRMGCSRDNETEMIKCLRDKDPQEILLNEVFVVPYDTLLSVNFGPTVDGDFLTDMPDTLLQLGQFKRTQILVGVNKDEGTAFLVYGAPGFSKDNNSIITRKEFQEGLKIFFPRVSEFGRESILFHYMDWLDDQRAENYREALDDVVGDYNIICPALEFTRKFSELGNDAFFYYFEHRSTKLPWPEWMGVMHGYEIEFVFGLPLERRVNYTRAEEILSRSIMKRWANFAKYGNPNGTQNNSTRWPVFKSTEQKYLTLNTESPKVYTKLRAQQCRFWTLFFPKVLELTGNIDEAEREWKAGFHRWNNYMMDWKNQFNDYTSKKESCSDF
Chain of Acetylcholinesterase (O42275 whole entry): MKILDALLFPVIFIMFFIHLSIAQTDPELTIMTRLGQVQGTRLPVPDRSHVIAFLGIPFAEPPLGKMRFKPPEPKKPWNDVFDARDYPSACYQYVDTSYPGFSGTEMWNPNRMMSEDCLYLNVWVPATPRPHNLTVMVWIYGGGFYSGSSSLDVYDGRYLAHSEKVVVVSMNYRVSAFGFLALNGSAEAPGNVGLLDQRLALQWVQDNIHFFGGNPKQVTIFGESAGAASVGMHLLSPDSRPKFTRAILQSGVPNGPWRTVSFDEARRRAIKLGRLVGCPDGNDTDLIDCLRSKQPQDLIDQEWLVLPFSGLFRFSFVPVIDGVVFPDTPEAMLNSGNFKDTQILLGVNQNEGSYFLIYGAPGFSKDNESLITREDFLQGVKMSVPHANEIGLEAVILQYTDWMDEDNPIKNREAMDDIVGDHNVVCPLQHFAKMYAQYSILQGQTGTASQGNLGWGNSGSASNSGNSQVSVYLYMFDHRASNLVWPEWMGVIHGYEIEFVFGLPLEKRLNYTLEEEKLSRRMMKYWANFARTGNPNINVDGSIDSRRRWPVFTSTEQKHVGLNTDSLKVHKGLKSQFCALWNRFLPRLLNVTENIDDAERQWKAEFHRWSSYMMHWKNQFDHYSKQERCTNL
Chain of Acetylcholinesterase (Electrophorus electricus) (O42275 24-633 limits assumed): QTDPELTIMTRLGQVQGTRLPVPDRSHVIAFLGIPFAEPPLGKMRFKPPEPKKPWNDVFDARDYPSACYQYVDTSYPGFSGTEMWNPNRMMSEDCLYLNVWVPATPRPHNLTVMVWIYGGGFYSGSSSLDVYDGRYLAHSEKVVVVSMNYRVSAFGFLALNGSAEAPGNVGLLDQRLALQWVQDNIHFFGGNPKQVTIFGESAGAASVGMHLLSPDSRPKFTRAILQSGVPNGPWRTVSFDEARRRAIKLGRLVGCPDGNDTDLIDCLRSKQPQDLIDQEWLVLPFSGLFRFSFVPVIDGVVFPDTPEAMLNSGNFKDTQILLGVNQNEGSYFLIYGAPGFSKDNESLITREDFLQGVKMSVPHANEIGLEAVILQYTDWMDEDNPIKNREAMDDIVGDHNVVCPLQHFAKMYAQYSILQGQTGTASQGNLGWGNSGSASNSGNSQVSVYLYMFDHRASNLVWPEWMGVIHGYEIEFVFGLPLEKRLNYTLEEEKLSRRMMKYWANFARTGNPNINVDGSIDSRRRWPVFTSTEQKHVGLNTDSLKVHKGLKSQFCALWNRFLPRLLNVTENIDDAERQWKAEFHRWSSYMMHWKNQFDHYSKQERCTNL
Chain of Cholinesterase (Equus caballus) (P81908 whole entry): as the sequence (P81908 whole entry) above
T1 sequence (P05067 whole entry): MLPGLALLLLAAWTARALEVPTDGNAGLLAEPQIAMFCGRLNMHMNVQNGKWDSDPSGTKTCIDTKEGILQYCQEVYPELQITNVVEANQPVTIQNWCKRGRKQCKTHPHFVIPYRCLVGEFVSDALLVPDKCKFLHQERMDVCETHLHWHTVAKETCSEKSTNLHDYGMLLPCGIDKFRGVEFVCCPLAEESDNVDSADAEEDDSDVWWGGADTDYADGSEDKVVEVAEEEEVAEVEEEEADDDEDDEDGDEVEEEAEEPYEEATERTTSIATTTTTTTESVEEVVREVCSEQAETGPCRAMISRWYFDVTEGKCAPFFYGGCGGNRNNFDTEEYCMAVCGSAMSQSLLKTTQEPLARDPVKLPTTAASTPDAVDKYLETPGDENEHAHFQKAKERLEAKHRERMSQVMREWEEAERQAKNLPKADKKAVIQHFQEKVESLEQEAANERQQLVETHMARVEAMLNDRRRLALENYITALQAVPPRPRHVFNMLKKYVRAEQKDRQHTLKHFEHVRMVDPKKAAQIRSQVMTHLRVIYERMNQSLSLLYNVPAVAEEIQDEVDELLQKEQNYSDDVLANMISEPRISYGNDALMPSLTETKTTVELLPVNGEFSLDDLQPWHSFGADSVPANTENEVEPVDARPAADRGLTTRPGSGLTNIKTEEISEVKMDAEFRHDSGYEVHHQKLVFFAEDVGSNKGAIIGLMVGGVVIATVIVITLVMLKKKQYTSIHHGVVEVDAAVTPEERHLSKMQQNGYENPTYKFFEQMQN

A word on the IC50: it is the concentration needed to halve the response being measured. The low end stands for inhibition by little substance, the high end for a need for much substance. On to `CN(C)c1ccc(-c2cc(=O)c3ccc(OCC(=O)NCCCNc4c5c(nc6ccccc46)CCCC5)cc3o2)cc1`, for which the IC50 came to 266 nM on Cholinesterase and 769 nM against Acetylcholinesterase.
For `CN(C)CCCNC(=O)COc1ccc2c(=O)cc(-c3ccc(N(C)C)cc3)oc2c1` the same measures were 13600 nM and 11900 nM.
Taken in the same sequence, the figures for `CN(C)c1ccc(-c2cc(=O)c3ccc(OCC(=O)NCCCCNc4c5c(nc6ccccc46)CCCC5)cc3o2)cc1` were 335 nM and 1460 nM.
For `CN(C)c1ccc(-c2cc(=O)c3ccc(OCC(=O)NCCCCN4CCCC4)cc3o2)cc1` the same measures were 11600 nM and 4830 nM.
Take `CN(C)c1ccc(-c2cc(=O)c3ccc(OCC(=O)NCCCCCCN4CCCC4)cc3o2)cc1`: the IC50 against Cholinesterase worked out at 1350 nM; on Acetylcholinesterase it was 3200 nM.
Take `CN(C)c1ccc(-c2cc(=O)c3ccc(OCC(=O)NCCCCCCCCNc4c5c(nc6ccccc46)CCCC5)cc3o2)cc1`: the half-maximal inhibitory concentration (IC50) stood at 24.7 nM against Cholinesterase and 94.6 nM against Acetylcholinesterase.
For `CN(C)c1ccc(-c2cc(=O)c3ccc(OCC(=O)NCCCCCCNc4c5c(nc6ccccc46)CCCC5)cc3o2)cc1`, the result in the series with PC-12 [1], in the series on PC-12 [3] and in the series on PC-12 [5] was Active. Further, the Ratio IC50 in series [2] came to 2. For the same molecule, the IC50 is 46.2 nM on Cholinesterase, 59.6 nM against Acetylcholinesterase and 9470 nM in [7]. Moreover, the inhibition entry in [4] and in series [6] was “Active” in each case. In addition, the Activity result in the series listed under Rattus norvegicus is recorded as “Non-Toxic”.
Consider `CN(C)c1ccc(-c2cc(=O)c3ccc(OCC(=O)NCCNc4c5c(nc6ccccc46)CCCC5)cc3o2)cc1`, for which the values for the 50% inhibitory concentration (IC50) against Cholinesterase and against Acetylcholinesterase were 814 nM and 418 nM, respectively.
With `O=c1c(O)c(-c2ccc(O)c(O)c2)oc2cc(O)cc(O)c12`, the outcome in the series on PC-12 [3] and with PC-12 [5] was Active.
`CN(C)c1ccc(-c2cc(=O)c3ccc(OCC(=O)NCCCN4CCCC4)cc3o2)cc1`: the concentration for half-maximal inhibition (IC50) was found to be 21600 nM on Cholinesterase and 7620 nM at Acetylcholinesterase.
Take `CN(C)c1ccc(-c2cc(=O)c3ccc(OCC(=O)NCCCCCCCCN4CCCC4)cc3o2)cc1`: the inhibition result in series [8] and in series [9] was “Active” in each case. Further, the IC50 turned out to be 238 nM against Cholinesterase and 2300 nM at Acetylcholinesterase.
With `CN(C)c1ccc(-c2cc(=O)c3ccc(OCC(=O)NCCN4CCCC4)cc3o2)cc1`, the half-inhibitory concentration (IC50) at Cholinesterase worked out at 27200 nM; against Acetylcholinesterase, 3130 nM.
Take `CN(C)CCNC(=O)COc1ccc2c(=O)cc(-c3ccc(N(C)C)cc3)oc2c1`: the IC50 against Cholinesterase worked out at 10700 nM; against Acetylcholinesterase, 5240 nM.
